Reference: PubChem BioAssay AID248 (DTP/NCI, 2004)
“And” between values parts separate entries of the source, which are not always exact repeats. Equal entries are not always repeated. Inconclusive results and toxic doses are left out.

Tested on: L1210 leukemia ip in BDF1 mice, survival T/C
Test: NCI In Vivo Anticancer Drug Screen. Data for tumor model L1210 Leukemia (intraperitoneal) in B6D2F1 (BDF1) mice
Conditions: higher = longer survival
Summary of the method: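 Survival endpoint. Drug-treated group vs vehicle group, expressed as T divided by C. Tumor passaged by transplantation.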

[1] = endpoint: mean survival time, dose: 100.0 mg/kg/injection, schedule: Q04DX003 (ip), vehicle: saline with Tween-80
[2] = endpoint: mean survival time, dose: 200.0 mg/kg/injection, schedule: Q04DX003 (ip), vehicle: saline with Tween-80
[3] = endpoint: mean survival time, dose: 400.0 mg/kg/injection, schedule: Q04DX003 (ip), vehicle: saline with Tween-80
[4] = endpoint: mean survival time, dose: 100.0 mg/kg/injection, schedule: Q01DX009 (ip), vehicle: Klucel (hydroxypropylcellulose) (HPC)
[5] = endpoint: mean survival time, dose: 200.0 mg/kg/injection, schedule: Q01DX009 (ip), vehicle: Klucel (hydroxypropylcellulose) (HPC)
[6] = endpoint: mean survival time, dose: 100.0 mg/kg/injection, schedule: Q01DX001 (ip), vehicle: carboxymethylcellulose (CMC)
[7] = endpoint: mean survival time, dose: 200.0 mg/kg/injection, schedule: Q01DX001 (ip), vehicle: carboxymethylcellulose (CMC)
[8] = endpoint: mean survival time, dose: 400.0 mg/kg/injection, schedule: Q01DX001 (ip), vehicle: carboxymethylcellulose (CMC)
[9] = endpoint: mean survival time, dose: 100.0 mg/kg/injection, schedule: Q04DX003 (ip), vehicle: Klucel (hydroxypropylcellulose) (HPC)
[10] = endpoint: mean survival time, dose: 200.0 mg/kg/injection, schedule: Q04DX003 (ip), vehicle: Klucel (hydroxypropylcellulose) (HPC)
[11] = endpoint: mean survival time, dose: 400.0 mg/kg/injection, schedule: Q04DX003 (ip), vehicle: Klucel (hydroxypropylcellulose) (HPC)

## CCCCOP(=O)(O)OCCCC.[Cd]
endpoint: mean survival time, dose: 3.0 mg/kg/injection, schedule: Q01DX009 (ip), vehicle: Klucel (hydroxypropylcellulose) (HPC)
  T/C: 96 % of control
endpoint: mean survival time, dose: 6.0 mg/kg/injection, schedule: Q01DX009 (ip), vehicle: Klucel (hydroxypropylcellulose) (HPC)
  T/C: 96 % of control
endpoint: mean survival time, dose: 12.0 mg/kg/injection, schedule: Q01DX009 (ip), vehicle: Klucel (hydroxypropylcellulose) (HPC)
  T/C: 95 % of control
endpoint: mean survival time, dose: 12.5 mg/kg/injection, schedule: Q01DX009 (ip), vehicle: Klucel (hydroxypropylcellulose) (HPC)
  T/C: 96 % of control
endpoint: mean survival time, dose: 25.0 mg/kg/injection, schedule: Q01DX009 (ip), vehicle: Klucel (hydroxypropylcellulose) (HPC)
  T/C: 94 % of control

## O=C(c1ccc(C(=O)N2CC2)cc1)N1CC1
endpoint: mean survival time, dose: 5.0 mg/kg/injection, schedule: Q04DX003 (ip), vehicle: carboxymethylcellulose (CMC)
  T/C: 106 % of control
endpoint: mean survival time, dose: 10.0 mg/kg/injection, schedule: Q04DX003 (ip), vehicle: carboxymethylcellulose (CMC)
  T/C: 97 % of control
endpoint: mean survival time, dose: 20.0 mg/kg/injection, schedule: Q01DX001 (ip), vehicle: carboxymethylcellulose (CMC)
  T/C: 103 % of control
endpoint: mean survival time, dose: 20.0 mg/kg/injection, schedule: Q04DX003 (ip), vehicle: carboxymethylcellulose (CMC)
  T/C: 94 % of control

## CC(=O)OCC1OC(Oc2c(Br)cc(Br)cc2Br)C(OC(C)=O)C(OC(C)=O)C1OC(C)=O (configuration not stated)
[1]
  T/C: 96 % of control
[2]
  T/C: 101 % of control
[3]
  T/C: 95 % of control

## OCCOc1ccc(-c2ccccc2)cc1
endpoint: mean survival time, dose: 75.0 mg/kg/injection, schedule: Q04DX002 (ip), vehicle: Klucel (hydroxypropylcellulose) (HPC)
  T/C: 101 % of control
endpoint: mean survival time, dose: 150.0 mg/kg/injection, schedule: Q04DX002 (ip), vehicle: Klucel (hydroxypropylcellulose) (HPC)
  T/C: 105 % of control
endpoint: mean survival time, dose: 300.0 mg/kg/injection, schedule: Q04DX002 (ip), vehicle: Klucel (hydroxypropylcellulose) (HPC)
  T/C: 108 % of control

## Cn1c(=O)n(C)c2nccnc21
endpoint: mean survival time, dose: 12.5 mg/kg/injection, schedule: Q04DX002 (ip), vehicle: saline
  T/C: 108 % of control
endpoint: mean survival time, dose: 25.0 mg/kg/injection, schedule: Q04DX002 (ip), vehicle: saline
  T/C: 105 % of control
endpoint: mean survival time, dose: 50.0 mg/kg/injection, schedule: Q04DX002 (ip), vehicle: saline
  T/C: 94 % of control

## N=c1nc2n(cc1F)[C@@H]1O[C@H](CO)[C@@H](O)[C@@H]1O2
[4]
  T/C: 187 % of control
[5]
  T/C: 177 % of control
endpoint: mean survival time, dose: 400.0 mg/kg/injection, schedule: Q01DX001 (ip), vehicle: Klucel (hydroxypropylcellulose) (HPC)
  T/C: 113 % of control
endpoint: mean survival time, dose: 400.0 mg/kg/injection, schedule: Q04DX002 (ip), vehicle: Klucel (hydroxypropylcellulose) (HPC)
  T/C: 165 % of control and 173 % of control
endpoint: mean survival time, dose: 600.0 mg/kg/injection, schedule: Q04DX002 (ip), vehicle: Klucel (hydroxypropylcellulose) (HPC)
  T/C: 180 % of control
endpoint: mean survival time, dose: 800.0 mg/kg/injection, schedule: Q01DX001 (ip), vehicle: Klucel (hydroxypropylcellulose) (HPC)
  T/C: 116 % of control
endpoint: mean survival time, dose: 2000.0 mg/kg/injection, schedule: Q01DX001 (ip), vehicle: Klucel (hydroxypropylcellulose) (HPC)
  T/C: 123 % of control
endpoint: mean survival time, dose: 2000.0 mg/kg/injection, schedule: Q01DX001 (ip), vehicle: saline
  T/C: 152 % of control
endpoint: median survival time, dose: 25.0 mg/kg/injection, schedule: Q03HX024 (ip), vehicle: water
  T/C: 255 % of control
endpoint: median survival time, dose: 50.0 mg/kg/injection, schedule: Q01DX009 (ip), vehicle: steriod suspending solution
  T/C: 175 % of control
endpoint: median survival time, dose: 50.0 mg/kg/injection, schedule: Q03HX024 (ip), vehicle: water
  T/C: 610 % of control
endpoint: median survival time, dose: 100.0 mg/kg/injection, schedule: Q01DX009 (ip), vehicle: steriod suspending solution
  T/C: 180 % of control
endpoint: median survival time, dose: 100.0 mg/kg/injection, schedule: Q01DX009 (ip), vehicle: water
  T/C: 190 % of control
endpoint: median survival time, dose: 100.0 mg/kg/injection, schedule: Q03HX024 (ip), vehicle: water
  T/C: 390 % of control
endpoint: median survival time, dose: 200.0 mg/kg/injection, schedule: Q01DX009 (ip), vehicle: steriod suspending solution
  T/C: 205 % of control
endpoint: median survival time, dose: 200.0 mg/kg/injection, schedule: Q01DX009 (ip), vehicle: water
  T/C: 240 % of control
endpoint: median survival time, dose: 400.0 mg/kg/injection, schedule: Q01DX001 (oral), vehicle: water
  T/C: 120 % of control
endpoint: median survival time, dose: 400.0 mg/kg/injection, schedule: Q01DX009 (ip), vehicle: steriod suspending solution
  T/C: 340 % of control
endpoint: median survival time, dose: 400.0 mg/kg/injection, schedule: Q01DX009 (ip), vehicle: water
  T/C: 450 % of control
endpoint: median survival time, dose: 800.0 mg/kg/injection, schedule: Q01DX001 (ip), vehicle: water
  T/C: 150 % of control

## CN(C(=O)N(CCCl)N=O)c1ccccc1
[6]
  T/C: 104 % of control
[7]
  T/C: 104 % of control
[8]
  T/C: 105 % of control

## Cn1c2c(sc1=O)CCC2
endpoint: mean survival time, dose: 50.0 mg/kg/injection, schedule: Q01DX Z (ip), vehicle: methylcellulose (MC)
  T/C: 102 % of control and 105 % of control
endpoint: mean survival time, dose: 100.0 mg/kg/injection, schedule: Q01DX001 (ip), vehicle: other
  T/C: 103 % of control
endpoint: mean survival time, dose: 100.0 mg/kg/injection, schedule: Q01DX Z (ip), vehicle: methylcellulose (MC)
  T/C: 111 % of control
[9]
  T/C: 99 % of control
endpoint: mean survival time, dose: 200.0 mg/kg/injection, schedule: Q01DX001 (ip), vehicle: other
  T/C: 111 % of control
endpoint: mean survival time, dose: 200.0 mg/kg/injection, schedule: Q01DX Z (ip), vehicle: methylcellulose (MC)
  T/C: 93 % of control
[10]
  T/C: 100 % of control
endpoint: mean survival time, dose: 400.0 mg/kg/injection, schedule: Q01DX001 (ip), vehicle: other
  T/C: 105 % of control

## ClC1=C(Cl)[C@@]2(Cl)[C@H]3[C@H]4C[C@H]([C@@H]5O[C@H]45)[C@H]3[C@@]1(Cl)C2(Cl)Cl
endpoint: mean survival time, dose: 1.0 mg/kg/injection, schedule: Q01DX009 (ip), vehicle: acetone
  T/C: 102 % of control
endpoint: mean survival time, dose: 2.0 mg/kg/injection, schedule: Q01DX009 (ip), vehicle: acetone
  T/C: 93 % of control
endpoint: mean survival time, dose: 4.0 mg/kg/injection, schedule: Q01DX009 (ip), vehicle: acetone
  T/C: 96 % of control
endpoint: mean survival time, dose: 8.0 mg/kg/injection, schedule: Q01DX009 (ip), vehicle: acetone
  T/C: 86 % of control
endpoint: mean survival time, dose: 25.0 mg/kg/injection, schedule: Q01DX001 (ip), vehicle: acetone
  T/C: 102 % of control

## C1=Cc2cccc3c2N(C1)CCC3 (tested in a mixture with another compound)
endpoint: mean survival time, dose: 100.0 mg/kg/injection, schedule: Q01DX009 (ip), vehicle: saline with Tween-80
  T/C: 103 % of control
[1]
  T/C: 109 % of control
endpoint: mean survival time, dose: 200.0 mg/kg/injection, schedule: Q01DX009 (ip), vehicle: saline with Tween-80
  T/C: 107 % of control
[2]
  T/C: 93 % of control
endpoint: mean survival time, dose: 400.0 mg/kg/injection, schedule: Q01DX009 (ip), vehicle: saline with Tween-80
  T/C: 95 % of control
[3]
  T/C: 98 % of control

## CN1C(C(=O)c2ccccc2)C1C(=O)c1ccccc1 (configuration not stated)
endpoint: mean survival time, dose: 75.0 mg/kg/injection, schedule: Q04DX003 (ip), vehicle: carboxymethylcellulose (CMC)
  T/C: 112 % of control
endpoint: mean survival time, dose: 150.0 mg/kg/injection, schedule: Q04DX003 (ip), vehicle: carboxymethylcellulose (CMC)
  T/C: 102 % of control
endpoint: mean survival time, dose: 300.0 mg/kg/injection, schedule: Q04DX003 (ip), vehicle: carboxymethylcellulose (CMC)
  T/C: 102 % of control

## CC(=O)Nc1ccc(NC(=O)Nc2ccc(F)c(Cl)c2)cc1
[9]
  T/C: 92 % of control
[10]
  T/C: 97 % of control
[11]
  T/C: 95 % of control

## Nc1ncnc2c1ncn2C1OC(C(O)CO)C(O)C1N (configuration not stated)
endpoint: mean survival time, dose: 50.0 mg/kg/injection, schedule: Q01DX001 (ip), vehicle: carboxymethylcellulose (CMC)
  T/C: 111 % of control
[6]
  T/C: 105 % of control
[7]
  T/C: 108 % of control
[8]
  T/C: 108 % of control

## CCCCCCCCCCCCCCCCCCOB(OCCCCCCCCCCCCCCCCCC)OCCCCCCCCCCCCCCCCCC
[1]
  T/C: 108 % of control
[2]
  T/C: 108 % of control
[3]
  T/C: 97 % of control

## COc1ccc(C=O)cc1OCCOc1cc(C=O)ccc1OC
endpoint: mean survival time, dose: 50.0 mg/kg/injection, schedule: Q01DX009 (ip), vehicle: Klucel (hydroxypropylcellulose) (HPC)
  T/C: 91 % of control
[4]
  T/C: 108 % of control
[5]
  T/C: 94 % of control

## CCc1ccc(NC(=O)Nc2ccccc2C)cc1
[4]
  T/C: 92 % of control
[9]
  T/C: 93 % of control
[5]
  T/C: 94 % of control
[10]
  T/C: 93 % of control
endpoint: mean survival time, dose: 400.0 mg/kg/injection, schedule: Q01DX009 (ip), vehicle: Klucel (hydroxypropylcellulose) (HPC)
  T/C: 100 % of control
[11]
  T/C: 94 % of control
